Tests used:
neutrophils [1] = assay: Neutrophil apoptosis/survival by phosphatidylserine externalization after annexin-V and 7-AAD labeling; type: cell-based, human; conditions: 15 h at 37° C.; anti-Fas mAb 10 ng/ml, gliotoxin 2 mg/ml
Experimental: Analysis of apoptosis. Neutrophil apoptosis was triggered by incubating neutrophils at 37° C. alone (constitutive apoptosis) or with anti-Fas mAb (10 ng/ml; Beckman-Coulter) or gliotoxin ([…]; Sigma) (Ward et al. 1999, J. Biol. Chem. 274:4309-4318) for the indicated times. Neutrophil apoptosis was evaluated by phosphatidylserine externalization after annexin-V and 7-AAD labeling (Kantari et al. 2007, Blood 110:4086-4095); mitochondrial depolarization after DiOC6 labeling (Moriceau et al. 2009, J. Immuno1.182:7254-7263); caspase-3 and caspase-8 activities measured by spectrophotometry (Biovision) in neutrophil lysates. In DMF-differentiated-PLB985 cells, apoptosis was triggered by gliotoxin or by rTRAIL (10 ng/ml; RD System) (Yin et al. 2005, Int. J. Biochem. Cell Biol. 37:1696-1708) and caspase-8 and caspase-9 activities were determined after gating on CD11b^+ cells using the Caspase-Glow® assay (Promega). Apoptosis-induced chromatin condensation and DNA fragmentation were assessed, respectively, after DNA staining with the blue fluorescent dye Hoechst (5 mg/ml) and propidium-iodide staining (Goepel et al. 2004, J. Leukoc. Biol. 75:836-843). Carboxyp21 ([…], SEQ ID NO: 24) corresponding to the p21 carboxy-terminus sequence (residues 141-160) and containing a RYIRS carboxy-terminal extension to facilitate its cell entry was synthesized and purified (Genecust). A modified peptide in which the charged amino acids responsible for its binding to PCNA have been changed according to dynamic simulation studies ([…], SEQ ID NO: 25) served as control. The effect of PS-341 (LC Laboratories) and MG132 were tested on neutrophil apoptosis and PCNA expression as indicated.

BM neutrophils = assay: Apoptosis of BM-isolated mouse neutrophils by annexin-V labelling; type: cell-based; conditions: increasing gliotoxin concentrations
Experimental: In vivo model of LPS-induced airway inflammation. Peripheral blood neutrophils and BM mature neutrophils from femurs were isolated using Percoll density gradient, as described in Mocsai et al. (2002, Immunity 16:547-558). Intranasal LPS administration in mice and collection of cells from BALF was performed as described in Chignard et al. (2000, Am. J. Physiol. Lung Cell Mol. Physiol. 279:L1083-1090). Mice were treated in accordance with Inserm guidelines in compliance with European animal-welfare regulations. Seven-week-old male C57B1/6 mice, weighing 25-30 g (Charles Rivers), were anesthetized by intra-muscular injection of a mixture of ketamine and xylasine, and then 330 μg/kg of LPS dissolved in 50 μl of saline were deposited intranasally. At different times, animals were killed by an intraperitoneal injection of a lethal dose of sodium pentobarbital (Sanofi) to isolate lung neutrophils. The trachea of each mouse was then cannulated and BAL performed with a syringe and multiple cycles of saline instillation (0.5 ml) and aspiration to obtain a BALF volume of 4 ml. The latter was centrifuged, pelleted cells were collected and differential cell counts made after cytospin centrifugation and staining with Diff-Quik products. BAL neutrophils were isolated by Ficoll density gradient centrifugation. […]

neutrophils [2] = conditions: report; cited from earlier work
[3] = report; cited from earlier work

| SMILES | Increase of annexin-V+ 7-AAD− cells (neutrophils [1]) | Apoptosis of BM neutrophils by annexin-V labelling (BM neutrophils) | Neutrophil apoptosis (neutrophils [2]) | Inflammation resolution in vivo [3] |
| --- | --- | --- | --- | --- |
| CN1C(=O)[C@]23CC4=CC=C[C@H](O)[C@H]4N2C(=O)[C@@]1(CO)SS3 [gliotoxin, reference compound] | further enhanced | trigger apoptosis in BM neutrophils in a dose-dependent manner |  |  |
| CC[C@H](CO)Nc1nc(NCc2ccccc2)c2ncn(C(C)C)c2n1 [roscovitine] |  |  | triggers neutrophil apoptosis | promotes inflammation resolution in vivo |
